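In this assay, cells in 96-well plates receive the compound at five concentrations for 48 hours. Endpoints are linearly interpolated between the surrounding concentrations. Abbreviation: GI50, concentration required for 50% inhibition of growth. TGI marks complete inhibition of growth.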
Key:
Test in all cases: DTP human tumour cell line panel, 48 h
A498 renal = system: A498 renal
CCRF-CEM leukemia = system: CCRF-CEM leukemia
DU-145 prostate = system: DU-145 prostate
HCT-116 colon = system: HCT-116 colon
HS 578T breast = system: HS 578T breast
U251 CNS = system: U251 CNS

Row | Structure (SMILES) | GI50 (A498 renal) | TGI (A498 renal) | GI50 (CCRF-CEM leukemia) | TGI (CCRF-CEM leukemia) | GI50 (DU-145 prostate) | TGI (DU-145 prostate) | GI50 (HCT-116 colon) | TGI (HCT-116 colon) | GI50 (HS 578T breast) | TGI (HS 578T breast) | GI50 (U251 CNS) | TGI (U251 CNS)
1 | CC/C=C\C[C@H]1C/C=C2/C(=O)C=C[C@@H]2C/C=C\CCCC(=O)O1 | 1.82 µM | 3.35 µM | 0.339 µM | 5.04 µM | 0.816 µM | 5.79 µM | 0.218 µM | 0.511 µM | 4.34 µM | 38.1 µM | 0.779 µM | 2.49 µM
2 | COc1cc(/C=C/c2ccc(OC)c(OC)c2)cc(OC)c1 |  |  |  | > 100 µM |  | > 100 µM |  | > 100 µM |  | 89.8 µM |  | 69 µM
3 | CC1=CC(C/C(C)=C/COc2ccc3ccc(=O)oc3c2)OC1=O (configuration not stated) |  |  |  | > 100 µM |  | > 100 µM |  | > 100 µM |  | > 100 µM |  | > 100 µM
4 | O=C1NC(=O)C(CC2CCCCCCCCCCC2=O)C(=O)N1 (configuration not stated) |  |  |  | > 100 µM |  | > 100 µM |  | > 100 µM |  | > 100 µM |  | > 100 µM
5 | COc1c(CCl)cc(-c2cc(=O)c3ccccc3s2)cc1CCl |  | 90.7 µM |  |  |  | > 100 µM |  | > 100 µM |  | 59.6 µM |  | > 59.8 µM
6 | Cc1ccc2[nH]c(O)c(N=Nc3ccc(S(N)(=O)=O)cc3)c2c1 | > 25 µM | > 25 µM | 15.6 µM | > 25 µM | 9.46 µM | > 25 µM | 8.87 µM | > 25 µM | 8.24 µM | > 25 µM | 12.8 µM | > 25 µM
7 | CCn1c(-c2ccc(OC(C)=O)cc2)c(C)c2cc(OC(C)=O)ccc21 |  | 70.4 µM |  | 53.9 µM |  | 43.3 µM |  | 22.1 µM |  | 54.4 µM |  | 26.2 µM
8 | O=C1CC2c3ccccc3CCC2c2ccccc21 (configuration not stated) |  | 41.1 µM |  |  |  | > 100 µM |  | 42.1 µM |  | 53.4 µM |  | > 100 µM
9 | CC1=C[C@H]2c3c(c(O)c(O)c4oc(-c5ccccc5)cc(=O)c34)[C@H](c3cc(O)c(O)c4oc(-c5ccccc5)cc(=O)c34)[C@H]2C(C)(C)C1 | 0.659 µM | 3.72 µM | 0.67 µM | > 75 µM | 0.408 µM | > 75 µM | 0.272 µM | 1.45 µM | 0.412 µM | 10.2 µM | 0.415 µM | 18.7 µM
10 | COc1ccc(C(=O)COc2ccc(/C=C3\COc4ccc(OC)cc4C3=O)cc2)cc1 |  |  | 2.86 µM | 10.2 µM | 31 µM | > 100 µM | 11.1 µM | 31.1 µM | 10.7 µM | 34.2 µM | 13.4 µM | 31.2 µM
11 | O=C(CCC1OCCO1)Nc1cc(NCc2ccccc2)ccc1OCc1ccccc1 |  | > 100 µM |  | 45.7 µM |  | > 100 µM |  | > 100 µM |  | > 100 µM |  | > 100 µM
12 | O=C1CSC(c2ccc(Cl)cc2Cl)N1c1ccc(F)cc1 (configuration not stated) | 15.9 µM | 29.8 µM | 2.19 µM | 19 µM | 16.1 µM | 29.6 µM | 16.7 µM | 30.3 µM | 16.8 µM | 39.9 µM | 17.8 µM | 31.7 µM
13 | O=C(O)C1C(Br)(c2ccccc2)C1(Br)c1ccccc1 (configuration not stated) |  | 83.8 µM |  |  |  | > 100 µM |  | > 100 µM |  | > 100 µM |  | > 100 µM
14 | COc1cc(C(=O)c2cc(C)c3[nH]c4ccc(C)cc4c3c2C)cc(OC)c1OC | < 0.01 µM | < 0.01 µM | < 0.01 µM | > 100 µM | < 0.01 µM |  | < 0.01 µM |  | < 0.01 µM | > 100 µM | < 0.01 µM | > 27.1 µM
15 | CC(C)C[C@H](NC(=O)/C=C/Cn1ccc2ccccc2c1=O)B(O)O | 1.7 µM | 7.95 µM |  |  | 8.78 µM | > 100 µM | 2.95 µM | 12.6 µM | 5.03 µM | > 100 µM |  | 
16 | CC(C)(C[C@H]1CN(S(=O)(=O)c2cccc(C(F)(F)F)c2)c2cc(-c3cc(F)cc(OC(F)F)c3)ccc2O1)C(=O)O | 4.5 µM | 16.9 µM | 4.72 µM | 24.7 µM | 12.4 µM | 25.3 µM | 4.01 µM | 15.8 µM | 4.47 µM | 27.8 µM | 4.51 µM | 17.1 µM
17 | Cc1ccc(-c2nc3ccc(Cl)cc3c(=O)n2N2C(=O)CSC2c2ccccc2Cl)cc1 (configuration not stated) | 5.91 µM | > 100 µM | > 100 µM | > 100 µM | 58.4 µM | > 100 µM | 5.51 µM | > 100 µM | 2.62 µM | 17.2 µM | 5.05 µM | > 100 µM
18 | O=C(/C=C\c1ccc(NCc2ccc(C(=O)O)cc2)cc1)CCl | 15 µM | 28.3 µM | 2.62 µM | 7.03 µM | 17.3 µM | 31.9 µM | 2.5 µM | 10.3 µM | 15.7 µM | 45.6 µM | 13.9 µM | 27 µM

Row | Structure (SMILES) | GI50 (A498 renal) | TGI (A498 renal) | GI50 (CCRF-CEM leukemia) | TGI (CCRF-CEM leukemia) | GI50 (DU-145 prostate) | TGI (DU-145 prostate) | GI50 (HCT-116 colon) | TGI (HCT-116 colon) | GI50 (HS 578T breast) | TGI (HS 578T breast) | GI50 (U251 CNS) | TGI (U251 CNS)
19 | Nc1ccc(-c2nc3ccc(Cc4ccc5nc(-c6ccc(N)cc6)[nH]c5c4)cc3[nH]2)cc1 | 0.855 µM | 21.4 µM | 2.12 µM | 6.7 µM | 11.1 µM | 24.2 µM |  |  | 13 µM | 39.5 µM |  | 
20 | CCNC(=O)Nc1cccc(NC(=O)NCC)n1 |  | > 100 µM |  | > 100 µM |  | > 100 µM |  | > 100 µM |  | > 100 µM |  | > 100 µM
21 | COc1cc(NC(C)CCCN)c2nccc(C)c2c1 (configuration not stated) |  |  |  |  |  | > 100 µM |  | 29.3 µM |  | 64.3 µM |  | 56.8 µM
22 | Cn1c2ccccc2c(=O)c2ccc(Cl)cc21 |  |  |  | > 10 µM |  |  |  | > 10 µM |  |  |  | 
23 | COc1cc(/C=C/c2cc(/C=C/c3ccc(O)c(OC)c3)n(C(=O)Nc3ccc(C)cc3C)n2)ccc1O | 0.538 µM | 1.93 µM | 0.232 µM | > 100 µM | 0.387 µM | 1.5 µM |  |  | 0.295 µM | > 100 µM | 0.401 µM | 1.47 µM
24 | C[C@H](O)C(=O)N1CCC(CCn2c(Sc3cc4c(cc3Br)OCO4)nc3c(N)ncnc32)CC1 | 3.35 µM | > 100 µM | 0.49 µM | > 100 µM | 0.642 µM | > 100 µM | 0.461 µM | > 100 µM |  | > 100 µM | 2.14 µM | > 100 µM
25 | CCCCCCCCCCCCCCCCCCOc1ccccc1CC(=O)OCC[N+]1(C)CCCC1 | 2.18 µM | 8.82 µM |  |  | 2.21 µM | 5.29 µM |  |  | 2.41 µM | 7.01 µM |  | 
26 | Nc1nc(F)nc2c1ncn2C1OC(CO)C(O)C1O (configuration not stated) | > 100 µM | > 100 µM | 1.21 µM | > 77 µM | 19.7 µM | > 100 µM | 19.4 µM | > 100 µM |  | > 100 µM | 70.7 µM | > 100 µM
27 | CN(CCC#N)c1ccc(/C=C(\C#N)c2ccc(Br)cc2)cc1 | > 100 µM | > 100 µM |  |  | > 100 µM | > 100 µM |  |  | > 100 µM | > 100 µM |  | 
28 | Br[C](Br)(Br)[Hg][c]1ccccc1 | 16.2 µM | 30 µM | 1.49 µM | 9.13 µM | 18.1 µM | 35 µM | 19.7 µM | 47.9 µM | 23.2 µM | 66.2 µM | 13.9 µM | 27.6 µM
29 | O=C1Nc2ccc(F)cc2/C1=C/c1ccc[nH]1 | > 25 µM | > 25 µM |  |  | > 25 µM | > 25 µM | > 23.7 µM | > 25 µM | > 25 µM | > 25 µM | > 25 µM | > 25 µM
30 | C#Cc1c(I)n(C2OC(CO[Si](C)(C)C(C)(C)C)C3OC(C)(C)OC32)c(=O)[nH]c1=O (configuration not stated) | 17.1 µM | 35.7 µM | 4 µM | 11.9 µM | 4.57 µM | 19.4 µM | 2.78 µM | 10.1 µM | 19.7 µM | 66.8 µM | 19.5 µM | 65.8 µM
31 | C[C@]12CC[C@@H]3c4cc(OCC(F)(F)F)c(O)cc4/C(=N/O)C[C@H]3[C@@H]1CC[C@@H]2O |  | 21.5 µM |  | < 0.0292 µM | 0.0673 µM | > 54 µM | 0.0421 µM | 15.2 µM |  |  |  | 1.07 µM
32 | C1CCC([PH+](C2CCCCC2)C2CCCCC2[PH+](C2CCCCC2)C2CCCCC2)CC1.O=C(C1[CH-]CCCC1)C1CCCC[N-]1.[Au] (configuration not stated) | 0.0757 µM | 0.584 µM |  |  | 0.298 µM | 1.61 µM |  |  | 0.225 µM | 1.56 µM |  | 
33 | Cc1ncc(CCCN(C)C)cc1Nc1ncc2c(n1)-c1ccc(C(F)(F)F)cc1NC(=S)C2 | 0.0219 µM | 0.0769 µM | < 0.0134 µM | 10.4 µM |  |  | < 0.0176 µM | 14.4 µM | 0.0276 µM | 1.14 µM | < 0.0194 µM | 14 µM
34 | COc1cccc2c(=O)c3c(sc12)c(N1CCNCC1)nc1ccccc13 | 1.69 µM | 3.14 µM |  |  | 1.72 µM | 3.19 µM | 1.55 µM | 3.28 µM | 1.7 µM | 3.71 µM |  | 
35 | CC(=O)C(=CN1CCN(C(=O)c2ccco2)C1=S)C(C)=O |  |  |  |  |  |  | 4.05 µM | 13.7 µM |  |  | 4.84 µM | 23.6 µM

Reference: PubChem BioAssay (NCI)
